Patent publication US20160280651A1, “COMPOUNDS THAT INDUCE ABA RESPONSES” (THE REGENTS OF THE UNIVERSITY OF CALIFORNIA, priority 2013, published 2016)

Key:
[1] = test system: Arabidopsis seeds; assay: Arabidopsis germination inhibition analysis, Example 12; assay type: in vivo; conditions: assessed after 3 days, dark
Procedure: To analyse the effect of compounds on inhibition of germination, Arabidopsis seeds after-ripened for about 4 weeks were surface-sterilized with a solution containing 5% NaClO and 0.05% Tween-20 for 10 minutes, and rinsed with water four times. Sterilized seeds were suspended with 0.1% agar and sowed on 0.8% solidified agar medium containing ½ Murashige and Skoog (MS) salts (Sigma-Aldrich) in the presence of the relevant treatment, stored at 4° C. for 4 days, and then transferred to 22° C. under the dark conditions. Germination was assessed after 3 days.

[2] = test system: HAB1 with PYR/PYL receptors; assay: Receptor-mediated PP2C inhibition assay with HAB1, Example 1; assay type: biochemical, Arabidopsis; conditions: 10 μM; in the presence of all ABA receptors tested
Procedure: (§1) FIG. 2A-FIG. 2C. Novel ABA agonists inhibit PPC2 activity through multiple PYR/PYL. (A) Chemical structure of naturally occurring (+)-ABA and selected ABA agonists. (B) and (C) HAB1, ABU, and ABI2 PP2C enzyme activity based ABA-agonist assays for various receptors in the presence or absence of 10 μM each test chemical.
FIG. 3A-FIG. 3B. (A) Receptor-mediated dose-dependent inhibition of PP2C enzyme activity by ABA agonists and analogs. (B) Observed compound IC50 values in enzymatic HAB1 PP2C-based ABA-agonist assays.
FIG. 4A-FIG. 4B. Quinabactin activates multiple ABA receptors. (A) Chemical structures of ABA, pyrabactin and quinabactin. (B) Chemical-dependent inhibition of HAB1 by ABA receptors. IC50 values (nM) were determined as described in the methods using 50 nM HAB1, 50 nM and multiple concentrations of compounds; full dose response curves are provided as in FIG. 3. (nd) correspond to receptors that were not produced as active proteins. The phylogenetic tree is a Neighbor-Joining tree made using the JTT distance matrix in MEGA5 (Tamura K, et al. (2011) MEGA5: Molecular Evolutionary Genetics Analysis Using Maximum Likelihood, Evolutionary Distance, and Maximum Parsimony Methods. Molecular Biology and Evolution 28(10):2731-2739).
HAB1 and PYL proteins were expressed and purified as described previously (Park S Y, et al. (2009) Abscisic Acid Inhibits Type 2C Protein Phosphatases via the PYR/PYL Family of START Proteins. Science 324(5930):1068-1071), with minor modifications. To obtain GST-HAB1, -ABI1 and -ABI2 fusion proteins, the HAB1 cDNA was cloned into pGex-2T whereas ABI1 and ABI2 cDNAs were cloned into the vector pGex-4T-1. Expression was conducted in BL21[DE3]pLysS host cells. Transformed cells were pre-cultured overnight, transferred to LB medium and cultured at 30° C. to culture A600 of ˜0.5. The culture was then cooled on ice and MnCl2 added to 4 mM and IPTG added to 0.3 mM. After 16 hours incubation at 15° C., cells were harvested and recombinant proteins were purified on glutathione agarose as described previously (Park S Y, et al. (2009). To obtain 6×His-PYL receptor fusion proteins, receptor cDNAs for all 13 ABA receptors were cloned into the vector pET28 and expressed and purified as described previously (Mosquna A, et al. (2011) Potent and selective activation of abscisic acid receptors in vivo by mutational stabilization of their agonist-bound conformation. PNAS 108(51):20838-20843); this yielded soluble and functional protein (assessed using receptor-mediated PP2C inhibition assays) for all receptors except PYL7, PYL11 and PYL12. These three receptors were therefore alternatively expressed as maltose binding (MBP) fusion proteins using the vector pMAL-c; expression of these constructs was carried out in BL21 [DE3]pLysS host strain with the same induction conditions used for GST-HAB1. Recombinant MBP-PYL fusion proteins were purified from sonicated and cleared lysate using amylose resin (New England Biolab, Inc.) using the manufacturers purification instructions. This effort yielded an active MBP-PYL11 fusion protein, but failed for PYL7 and PYL12.
PP2C activity assays using recombinant receptors and PP2Cs were carried out as follows: Purified proteins were pre-incubated in 80 μl assay buffer containing 10 mM MnCl2, 3 μg bovine serum albumin and 0.1% 2-mercaptoethanol with ABA or ABA agonist for 30 minutes at 22° C. Reactions were started by adding 20 μL of a reaction solution containing 156 mM Tris-OAc, pH 7.9, 330 mM KOAc and 5 mM 4-methylumbelliferyl phosphate after which fluorescence measurements were immediately collected using an excitation filter 355 nm and an emission filter 460 nm on a Wallac plate reader. Reactions contained 50 nM PP2C and 100 nM PYR/PYL proteins, respectively.

[3] = test system: ABI2 with PYR/PYL receptors; assay: Receptor-mediated PP2C inhibition assay with ABI2, Example 1; assay type: biochemical, Arabidopsis; conditions: 10 μM; in the presence of all ABA receptors tested
Procedure: as §1
(§2) HAB1 and PYL proteins were expressed and purified as described previously (Park S Y, et al. (2009) Abscisic Acid Inhibits Type 2C Protein Phosphatases via the PYR/PYL Family of START Proteins. Science 324(5930):1068-1071), with minor modifications. To obtain GST-HAB1, -ABI1 and -ABI2 fusion proteins, the HAB1 cDNA was cloned into pGex-2T whereas ABI1 and ABI2 cDNAs were cloned into the vector pGex-4T-1. […] After 16 hours incubation at 15° C., cells were harvested and recombinant proteins were purified on glutathione agarose as described previously (Park S Y, et al. (2009). To obtain 6×His-PYL receptor fusion proteins, receptor cDNAs for all 13 ABA receptors were cloned into the vector pET28 and expressed and purified as described previously (Mosquna A, et al. (2011) Potent and selective activation of abscisic acid receptors in vivo by mutational stabilization of their agonist-bound conformation. PNAS 108(51):20838-20843); this yielded soluble and functional protein (assessed using receptor-mediated PP2C inhibition assays) for all receptors except PYL7, PYL11 and PYL12. […]

[4] = test system: ABI1 with PYR/PYL receptors; assay: Receptor-mediated PP2C inhibition assay with ABI1, Example 1; assay type: biochemical, Arabidopsis; conditions: 10 μM; in the presence of all ABA receptors tested
Procedure: as §1, §2

[5] = test system: Chlamydomonas; assay: Colony growth of Chlamydomonas with and without salinity and osmotic stress; assay type: in vivo
Procedure: FIG. 17A-FIG. 17D. The effect of ABA and its agonists in Physcomitrella patens and Chlamydomonas. Protonemal growth images (A) and quantitative analysis (B) of the effects of ABA and agonists on Phsycomitrella patens. Protonema were grown on 200 μM of specific test chemical for 10 days. […] Pyrabactin bleached protonema. (C) The expression of ABA-responsive genes of Physcomitrella patens. Protonema were treated with 200 μM chemical solutions for 3 h. (D) Colony growth of Chlamydomonas on the chemical with salinity stress and osmotic stress. There was no effect of ABA and LC66C6 on the Chlamydomonas growth with and without stresses.

[6] = test system: ABA-responsive genes; assay: Quantitative RT-PCR of ABA-responsive genes in Arabidopsis; assay type: in vivo
Procedure: FIG. 9A-FIG. 9D. LC66C6 induces numerous ABA-responsive genes. […] Ten-day old seedlings were treated with carrier solvent (DMSO) or either 25 μM ABA, pyrabactin or LC66C6 for 8 hours. Total RNA was then prepared labeled and hybridized to ATH1 microarrays. Data plotted are log 2 transformed average expression values for ˜13K probes that were detectable across all experiments. Data shown are averages determined from triplicate biological replicates. (C) and (D) show the expression of a reporter gene in different plant tissues after treatment with vehicle (DMSO), pyrabactin, LC66C6, or (+)-ABA.
FIG. 10. ABA-responsive gene expression in PYR/PYL single mutants. The response of the ABA-responsive MAPKKK18, RD29A, and RD29B mRNAs to LC66C6, ABA and pyrabactin were characterized in the Col and Ler ecotypes and the pyr1, pyl1, ply2, pyl3 and pyl4 single mutant genotypes.
FIG. 11. LC66C6 induces ABA-responsive gene expression in wild-type plants, abi1-1 and PYR/PYL quadruple mutants.
Total RNA was isolated using Plant RNA purification reagent (Invitrogen, USA) according to the manufacturer's instructions. cDNA was synthesized from 1 μg of total RNA using the QantiTec reverse transcription kit (Qiagen, USA). Real-time PCR using Maxima® SYBR Green/Fluorescein qPCR Master Mix (Fermentas) was performed with the iQ5 real-time PCR detection system (Bio-Rad, Hercules, Calif.). The relative amounts of target mRNAs were determined using the relative standard curve method and were normalized by relative amount of internal control mRNA. Biological triplicate experiments were performed.

Compound	Percentage germination of Arabidopsis seeds ([1]; 0.2 uM) [%]	Percentage germination of Arabidopsis seeds ([1]; 1 uM) [%]	Percentage germination of Arabidopsis seeds ([1]; 5 uM) [%]	Percentage germination of Arabidopsis seeds ([1]; 25 uM) [%]	Inhibition of PP2C enzyme activity of HAB1 [2] [%]	Inhibition of PP2C enzyme activity of ABI2 [3] [%]	Inhibition of PP2C enzyme activity of ABI1 [4] [%]	Growth of Chlamydomonas [5]	Induction of MAPKKK18, RD29A and RD29B mRNAs ([6]; Col and Ler ecotypes and pyr1, pyl1, pyl2, pyl3, pyl4 single mutants)	Expression of ABF3, GBF3, NCED3 and RD29A ([6]; Col wild-type plants)
C#CCN1C(=O)CCc2cc(NS(=O)(=O)Cc3ccc(Br)cc3)cc(C)c21	100	100	100	0	–	–	–	–	–	–
C=CCN1C(=O)C(C)Cc2cc(NS(=O)(=O)Cc3ccc(C)cc3)ccc21 (stereo not shown)	99	100	100	71	–	–	–	–	–	–
C=CCN1C(=O)C(C)Cc2cc(NS(=O)(=O)Cc3ccc(OC(F)(F)F)cc3)ccc21 (stereo not shown)	100	100	100	14	–	–	–	–	–	–
C=CCN1C(=O)CCc2cc(NS(=O)(=O)Cc3ccc(OC(F)(F)F)cc3)cc(C)c21	100	100	30	0	–	–	–	–	–	–
C=CCN1C(=O)CCc2cc(NS(=O)(=O)Cc3ccc(C)cc3)cc(C)c21	100	100	100	0	–	–	–	–	–	–
C=CCN1C(=O)CCc2cc(NS(=O)(=O)Cc3ccc(Br)cc3)cc(C)c21	100	100	96	0	–	–	–	–	–	–
CC1=CC(=O)CC(C)(C)C1(O)/C=C/C(C)=C\C(=O)O (single isomer, unassigned; (+)) [(+)-ABA, Abscisic acid, reference compound]	–	–	–	–	> 90	> 90	> 90	no effect	induced	induced expression of ABF3, GBF3, NCED3, and RD29A in a dose dependent manner
CCCN1C(=O)CCc2cc(NS(=O)(=O)Cc3ccc(C)cc3)ccc21 [drawing 36]	100	46	0	0	–	–	–	–	–	–
C#CCN1C(=O)CCc2cc(NS(=O)(=O)Cc3ccc(C)cc3)cc(C)c21	100	100	100	0	–	–	–	–	–	–
C#CCN1C(=O)CCc2cc(NS(=O)(=O)Cc3ccc(OC(F)(F)F)cc3)cc(C)c21	100	100	68	0	–	–	–	–	–	–
C=CCN1C(=O)CCc2cc(NS(=O)(=O)Cc3ccc(Cl)cc3)cc(C)c21	100	100	100	0	–	–	–	–	–	–
